Reference: the SangsterLogP compilation

What was measured:
[1] = method code SF-AS, from PMID: 7460030; conditions: pH 7.3
[2] = not given; remark: listed apart in the source
[3] = method code SF-AS, from PMID: 7170648; conditions: pH 7.4
[4] = not given; remark: listed apart in the source
[5] = not given; remark: listed apart in the source
[6] = method code SF, from DOI: 10.1021/jm000996o, PMID: 11087582; conditions: pH 7.2
[7] = method code SF-RC, from DOI: 10.2174/1874471011003010009, PMID: 20657759; conditions: pH 7.4
[8] = method code SF-RC, from DOI: 10.1016/j.nucmedbio.2014.05.001, PMID: 24969632; conditions: pH 7.4
[9] = method code SF-HPLC, from Xiong, Ð. (2009). Apparent partiton coefficient of hawthorn leaf flavonoids in phospholipids complex. Chinese Traditional Patent Medicine, 31(7)1075-1078.
[10] = method code SF-HPLC, from DOI: 10.1021/js950484a, PMID: 9002474; conditions: pH 7.4
[11] = from Medić-Šarić, M; Mornar, A.; Badovinac-Črnjević, T; Jasprica, I. (2004). Experimental and calculation procedures for molecular lipophilicity: A comparative study for …; conditions: pH 7.4
[12] = method code SF-RC, from DOI: 10.1021/acs.jmedchem.6b01291.s001, PMID: 27696839; conditions: pH 7.4
[13] = method code SF, from DOI: 10.1021/jm020886c, PMID: 12852752; conditions: pH 7.4
[14] = method code SF-HPLC, from DOI: 10.1211/0022357001774101, PMID: 10813545
[15] = method code SF-HPLC, from DOI: 10.1002/jps.2600840603, PMID: 7562403; conditions: pH 7.4
[16] = method code SF, from DOI: 10.1021/jm950645n, PMID: 8576912
[17] = method code SF-HPLC, from Yao, Y.; Liao, Q.; Zeng, L.; Zhang, L.; Ma, Y.; Zeng, Y. (2009). Determination of the apparent oil-water partition coeffcient of neoandrographolide and effect of pH. Pharmacy Today, 19(10)8-10.; conditions: pH 6.0
[18] = not given; remark: listed apart in the source
[19] = method code SF-HPLC, from DOI: 10.1002/jps.2600800905, PMID: 1800703; conditions: pH 7.0
[20] = method code SF, from DOI: 10.1021/jm980124a, PMID: 9685245; conditions: pH 13.0
[21] = method code SF, from DOI: 10.4103/0250-474x.119813, PMID: 24302794; conditions: pH 7.4
[22] = method code SF-HPLC, from DOI: 10.1211/146080899128734820; conditions: pH 2.0
[23] = method code SF-HPLC, from DOI: 10.1016/j.ejps.2010.08.004, PMID: 20728535
[24] = method code SF, from DOI: 10.1016/s0960-894x(01)80459-5
[25] = not given; remark: listed apart in the source
[26] = not given; remark: listed apart in the source
[27] = not given; remark: listed apart in the source
[28] = not given; remark: listed apart in the source
[29] = not given; remark: listed apart in the source
[30] = method code SF-HPLC, from DOI: 10.1002/jlac.1995199512306
[31] = method code SF-EIA, from DOI: 10.1016/s0022-2275(20)42614-8, PMID: 2280184; conditions: pH 1.0
[32] = not given; remark: listed apart in the source
[33] = method code SF-RC, from DOI: 10.1016/s0969-8051(00)00170-0, PMID: 11323238; conditions: pH 7.4
[34] = not given; remark: listed apart in the source
[35] = method code SF-HPLC, from DOI: 10.1002/jps.2600830407, PMID: 8046599; conditions: pH 7.0
[36] = method code SF, from DOI: 10.1016/j.bmc.2011.10.022, PMID: 22100260; conditions: pH 7.4
[37] = method code SF-HPLC, from DOI: 10.1016/j.ejps.2006.07.007, PMID: 16997537; conditions: pH 7.4

CCCCCCCOc1cccc(NC(=O)OC2CCCCC2n2ccnc2)c1 (stereo not drawn)
logD [1]: 5.64

CCCN(CCCCN1C(=O)CC2(CCCC2)C(O)C1=O)C1COc2cccc(OC)c2C1 (stereo not drawn)
logP: 4.1

O=C(OCC1C2CC3CCC1N3CC2=Cc1ccc(I)c(Cl)c1)c1ccccc1 (stereo not drawn)
logP [2]: 6.41

CCN(Cc1cc(Nc2ccnc3cc(Cl)ccc23)ccc1O)C(=O)N1CCN(C)CC1
logD [3]: 3.43

CC1C=C(C(=O)Nc2ccc(-c3ccccc3S(N)(=O)=O)cc2)N(c2ccc3ccnc(N)c3c2)N1 (stereo not drawn)
logP [4]: 2.6

CC(C)C(Nc1ccc(C(F)(F)F)cc1Cl)C(=O)OC(C#N)c1cccc(Oc2ccccc2)c1 (racemic)
logP [5]: 5.5

Cc1cn(C2CC(N=[N+]=[N-])C(COP(=O)(OCCSC(=O)C(C)(C)C)OCCSC(=O)C(C)(C)C)O2)c(=O)[nH]c1=O (stereo not drawn)
logD [6]: 3.73

COc1ccc2cccc(N3CCN(CCNC(=O)c4ccc(F)cc4)CC3)c2c1
logD [7]: 4.14

O=C(OC(C(F)(F)F)C(F)(F)F)N1CCC(C(O)(c2ccc3c(c2)OCO3)c2ccc3c(c2)OCO3)CC1
logD [8]: 4.67

C[C@@H]1O[C@@H](O[C@@H]2[C@@H](O)[C@H](O)[C@@H](CO)O[C@H]2c2c(O)cc(O)c3c(=O)cc(-c4ccc(O)cc4)oc23)[C@H](O)[C@H](O)[C@H]1O
logP [9]: -0.92

CCCCCCCC/C=C\CCCCCCCC(=O)NCc1ccc(O)c(OC)c1
logD [10]: 8.02

COc1ccccc1C(c1cc2ccccc2oc1=O)c1cc2ccccc2oc1=O
logD [11]: 2.5

O=C(NO)C1CC(O)CN1C(=O)c1ccc(C#Cc2ccc(OCCCCCF)cc2)cc1 (stereo not drawn)
logD [12]: 2.5

Cc1ccc(CCOCCCS(=O)(=O)CCNCCc2ccc(O)c3[nH]c(=O)sc23)cc1-c1nccs1
logD [13]: 1.44

C[C@]12CC[C@H]3[C@@H](CCC4=CC(=O)CC[C@@]43C)[C@@H]1CC[C@@H]2OC(=O)CCC(=O)O
logP [14]: 3.55

CCCC1O[C@@H]2C[C@H]3[C@@H]4CCC5=CC(=O)C=C[C@]5(C)[C@H]4[C@@H](O)C[C@]3(C)[C@]2(C(=O)CO)O1 (stereo partly drawn)
logD [15]: 3.55

C#CCN(Cc1ccc2[nH]c(C)nc(=O)c2c1)c1ccc(C(=O)NCc2cccc([N+](=O)[O-])c2)cc1
logP [16]: 3.7

C=C1CC[C@@H]2[C@](C)(CO[C@@H]3O[C@H](CO)[C@@H](O)[C@H](O)[C@H]3O)CCC[C@@]2(C)[C@@H]1CCC1=CCOC1=O
logD [17]: 0.44

CCC1(C)C2CN(Cc3ccccc3)CC1CN(CC1CCCCC1)C2 (stereo not drawn)
logP [18]: 6.65

CC[C@H](C)C(=O)O[C@H]1C[C@H](O)C=C2C=C[C@H](C)[C@H](CC[C@@H]3C[C@@H](O)CC(=O)O3)[C@H]21
logD [19]: 2.45

CCC(C)c1ccc(N2CCCN(c3ccc(C(C)CC)cc3)C2=N)cc1 (stereo not drawn)
logD [20]: 5.28

CCc1cccc2c3c([nH]c12)C(CC)(CC(=O)N[C@@H](C=O)[C@@H](O)[C@H](O)[C@H](O)CO)OCC3 (stereo partly drawn)
logD [21]: 1.35

CC[C@H](C)C(=O)O[C@H]1C[C@@H](C)C=C2C=C[C@H](C)[C@H](CC[C@@H]3C[C@@H](O)CC(=O)O3)[C@H]21
logD [22]: 4.04

CCCCCCCCCCCCCCCCCC(=O)OC[C@@H]1O[C@H](n2ccc(N)nc2=O)CS1
logP [23]: 1.82

CCCCCCOP(=O)(OCC1CC(O)C(n2cnc3c(N)ncnc32)O1)OCC1OC(n2cc(C)c(=O)[nH]c2=O)CC1N=[N+]=[N-] (stereo not drawn)
logP [24]: 1.11

CN1CN(c2ccccc2)C2(CCN(CCCC(=O)c3ccc(F)cc3)CC2)C1=O
logP [25]: 3.37

CC(=O)OCC(=O)[C@@]1(O)[C@H](C)C[C@H]2[C@@H]3CCC4=CC(=O)C=C[C@]4(C)[C@@]3(F)[C@@H](O)C[C@@]21C
logP [26]: 2.59

CC(C)(C)OC(=O)NC(Cc1ccccc1)C(=O)N1CCCC1C(=O)NCc1ccc(N)cc1 (stereo not drawn)
logP [27]: 2.34

COC(=O)CC(O)CC(O)C=Cn1c(C(C)C)nc(-c2cccc(Br)c2)c1-c1ccc(F)cc1 (stereo not drawn)
logP [28]: 2.8

CC(=O)O[C@]1(C(C)=O)CC[C@H]2[C@@H]3CCC4=CC(=O)CC[C@]4(C)[C@H]3CC[C@@]21C
logP [29]: 3.79

Cc1cn(C2CC(N=[N+]=[N-])C(COP(=O)(OCc3ccc(Cl)cc3)OCC3OC(n4cc(C)c(=O)[nH]c4=O)CC3N=[N+]=[N-])O2)c(=O)[nH]c1=O (stereo not drawn)
logP [30]: 2.06

C[C@H](CCC(=O)NCC(=O)O)[C@H]1CC[C@H]2[C@@H]3C[C@H](O)[C@@H]4C[C@H](O)CC[C@]4(C)[C@H]3CC[C@]12C
logD [31]: 2.15

CCC12C=C(C(=O)OCCOC(C)=O)n3c4c(c5ccccc53)CCN(CCC1)C42 (stereo not drawn)
logP [32]: 4.5

COc1cc2ncnc(N3CCC(n4c(=O)c5cc(C)ccc5n(C)c4=O)CC3)c2cc1OC
logD [33]: 3.14

CC(=O)OC1C(c2ccc(=O)oc2)[C@@]2(C)CC[C@H]3[C@@H](CC[C@@H]4CC(O)CC[C@@]43C)[C@]23OC13 (stereo partly drawn)
logP [34]: 3.27

Cc1cn(C2CC(N=[N+]=[N-])C(COC(=O)CNC(=O)C34CC5CC(CC(C5)C3)C4)O2)c(=O)[nH]c1=O (stereo not drawn)
logD [35]: 2.1

CCN1CCN(S(=O)(=O)c2cnc(O)c(-c3nc4c5n(nc4c(=O)[nH]3)CCCC5CCOC)c2)CC1 (stereo not drawn)
logD [36]: 1.6

CCN(CC)C(=O)COC(=O)C1OC(Oc2cc3oc(-c4ccc(O)cc4)cc(=O)c3c(O)c2O)C(O)C(O)C1O (stereo not drawn)
logD [37]: 1.48
